Where “and” joins values, the source holds several entries; their conditions need not be identical. Identical values can stand only once. Entries after “also recorded” stand apart in the source; their conditions may differ. Like-named read-outs stand apart in the source and are kept apart here.
Assays:
[1] = cited from earlier work
[2] = cited from earlier work; remark: listed apart in the source
[3] = Therapeutic drug monitoring (TDM) serum concentrations in patients; details: for Serum concentration, 10% percentile / Serum concentration, 25% percentile / Serum concentration, 50% percentile / Serum concentration, 75% percentile / Serum concentration, 90% percentile / Serum concentration, maximum / Serum concentration, minimum: trough; for Serum concentration, mean: trough (10-28 h after dose)
Excerpt: (§1) Information regarding age, sex, daily dose and time between last dose and blood sampling was also collected from the database. For patients with multiple TDM measurements, only the last measurement was included. Included patients were divided into four subgroups based on age: (a) < 18, (b) 18–64, (c) 65–80, and (d) > 80 years.
(§2) Measured serum concentrations represent total concentrations, i.e. the sum of bound and unbound drug.
(§3) All patients were included unless they met the exclusion criteria. Exclusion criteria were: (a) serum concentration of citalopram, escitalopram and/or demethylcitalopram outside the limits of quantification (LOQ), (b) blood sampling not performed at trough levels, outside the time interval of 10–28 h after last dose intake, (c) prescribed dose of citalopram or escitalopram less/more than 2.5–80 mg or 2.5–60 mg, respectively, and (d) detection of interacting drugs in the citalopram/escitalopram serum sample. In detail, we screened the samples for CYP2C19 inducers carbamazepine, phenobarbital and phenytoin and the CYP2C19 or –2D6 inhibitors bupropion, fluoxetine, fluvoxamine, paroxetine or levomepromazine.
(§4) Differences in absolute serum concentrations of citalopram, escitalopram and metabolites as well as differences in time between last blood sampling and daily dose was investigated across the age subgroups using Kruskal Wallis test followed by Dunn's test. P-values were Bonferroni corrected by multiplying the P-value by the number of statistical analyses that were performed.

[4] = human, in vivo
Excerpt: as §1, §2, §3, §4

[5] = design: method as in earlier work; details: cited from earlier work
[6] = system: human induced pluripotent stem cell-derived cardiomyocytes (hiPSC-CM); test: Action potential recordings in hiPSC-CM with voltage sensitive dye (FluoVolt, CellOPTIQ); format: cell-based; details: for Triangulation effect: 10 times typical concentrations; for Electrical activity of the cells: highest concentrations (100 times typical); for Depolarisation (phase 0) measured by TRise: increasing concentrations; for Early and medium repolarisation (APD30 and APD50): intermediate concentrations; for Triangulation (APD90-APD30) effect: low concentrations; for Late repolarisation: lowest tested concentrations
Method: Cryopreserved human induced pluripotent stem cell-derived cardiomyocytes (hiPSC-CM): CDI iCell cardiomycytes^2 01434 CardioTox Kit (Catalog #: R1222, FujiFilm CDI, Madison, WI) were kept in liquid nitrogen until culture according to instructions by the manufacturer. […] All studies were conducted at Clyde Biosciences (Glasgow, Scotland). Cells were cultured in 96-well glass-bottomed plates (MatTek, Ashland, Massachusetts) coated with fibronectin ([…] in PBS supplemented with Ca2+ and Mg2+) (Sigma, St. Louis, Missouri) in a humidified incubator at 37 °C for 3 h. The cell density was 50,000 cells/cm2 (25,000 cells/well). The subsequent maintenance protocols followed manufacturer's instructions using their maintenance medial (FujiFilm CDI Cardiomyocytes Maintenance Media). Experiments were performed between days 4–8. Prior to beginning an experiment, cells were washed in serum-free media (SF media), specifically DMEM (Gibco, ThermoFisher Scientific, UK) supplemented with 10 mM galactose and 10 mM sodium pyruvate.
hiPSC-CM were loaded with 5 μM FluoVolt (ThermoFisher) and the multiwell plate was placed in the CellOPTIQ platform (at Clyde Biosciences Ltd, Glasgow, Scotland). The FluoVolt fluorescence signal was recorded using a 40 × (NA 0.6) objective lens. Excitation wavelength was 480 ± 10 nm, and emitted light was collected by a photomultiplier (PMT) at 510–560 nm. Drugs were supplied by Santa Cruz Biotechnology (Germany) and Toronto Research Chemicals (Canada). Their identity and concentration were blinded from the laboratory personnel. […] 30 min after exposure to the tested drug or vehicle a 20 s recording was taken. Offline analysis was performed using proprietary software (CellOPTIQ®). The following (averaged) parameters were obtained from the AP recordings of 4 independent replicates: cycle length (CL, […]); rise time (Trise, ms) between 10 and 90% of the AP amplitude, and AP durations (APD, ms) from 10% to 90% repolarization at 10% intervals. In this study rate-correction was based on previous studies.[14]
Drugs were tested at 3 concentrations with matched vehicle controls for each concentration. The chosen escitalopram (S-citalopram) concentration was 60 nM. Assuming no protein binding in the in vitro model, this corresponds to a total serum concentration of 136 nM, as escitalopram protein binding is reported at 55–56% (most commonly 56%, which is used in the present study).[15], [16], [17] […] This could vary with age and clinical conditions.[20] […] In a large therapeutic drug monitoring (TDM) study 60 nM was the average total concentration in patients with normal escitalopram metabolism through CYP2C19, and 136 nM was below the average total concentration in poor metabolizers.[7] After administration of racemic citalopram, R-citalopram is reported to be 3 times higher than S-citalopram in a publication by Ji et al.[22] The typical concentration of R-citalopram as well as the S-/R-demethylcitalopram and S-/R-didemethylcitalopram metabolites, were calculated according to ratios from their paper.[22]
Shapiro Wilk tests were used to determine whether the data in this study were normally distributed based on a least-squares fit to a normal function, while Brown–Forsythe test was used to verify homogeneity of variance (Origin version 9, OriginLab Corp., Northampton, Massachusetts). […] Statistical tests were made using a paired t-tests for differences between absolute values, with P-values adjusted for multiple comparisons using the Benjamini-Hochberg procedure (one-way ANOVA). The relationship between AP duration at 90% of repolarization (APD90) and CL or diastolic interval was fit to single or double exponential functions (Origin version 9).

plasma protein = system: plasma protein; design: method as in PMID 17375980; details: listed as escitalopram; cited from earlier work
[7] = design: method as in PMID 19841156; details: cited from earlier work
[8] = hiPSC-CM, 10x clinical concentration
[9] = hiPSC-CM, 100x clinical concentration
[10] = hiPSC-CM, all tested concentrations
[11] = hiPSC-CM, clinical concentration

## CN(C)CCCC1(c2ccc(F)cc2)OCc2cc(C#N)ccc21 (stereo not drawn) [Citalopram, citalopram]
[1]
  Time of maximum concentration after intake (Tmax): 3 to 4 h
[2]; older patients (mean age 76), Canadian study
  Relative risk for hospitalization due to ventricular arrhythmia: 1.53
[3]; citalopram users
  Serum concentration, 10% percentile: 48 nM
  Serum concentration, 25% percentile: 84 nM
  Serum concentration, 50% percentile: 133 nM
  Serum concentration, 75% percentile: 211 nM
  Serum concentration, 90% percentile: 314 nM
  Serum concentration, maximum: 733 nM
  Serum concentration, minimum: 7 nM
  Serum concentration, mean: 163 nM

## CNCCCC1(c2ccc(F)cc2)OCc2cc(C#N)ccc21 (stereo not drawn) [Demethylcitalopram, demethylcitalopram]
[3]; citalopram users
  Serum concentration, 10% percentile: 23 nM
  Serum concentration, 25% percentile: 35 nM
  Serum concentration, 50% percentile: 55 nM
  Serum concentration, 75% percentile: 87 nM
  Serum concentration, 90% percentile: 130 nM
  Serum concentration, maximum: 395 nM
  Serum concentration, minimum: 5 nM
  Serum concentration, mean: 68 nM
[3]; escitalopram users
  Serum concentration, 10% percentile: 13 nM
  Serum concentration, 25% percentile: 18 nM
  Serum concentration, 50% percentile: 26 nM
  Serum concentration, 75% percentile: 37 nM
  Serum concentration, 90% percentile: 51 nM
  Serum concentration, maximum: 329 nM
  Serum concentration, minimum: 5 nM
  Serum concentration, mean: 30 nM

## N#Cc1ccc2c(c1)COC2(CCCN)c1ccc(F)cc1 (stereo not drawn) [Didemethylcitalopram, didemethylcitalopram]
[4]
  Serum concentration, 10% percentile: 0.82 nM
  Serum concentration, 25% percentile: 1.72 nM
  Serum concentration, 50% percentile: 3.47 nM
  Serum concentration, 75% percentile: 5.90 nM
  Serum concentration, 90% percentile: 9.65 nM
  Serum concentration, maximum: 35.33 nM
  Serum concentration, minimum: 0.34 nM
[5]
  Serum concentrations associated with sudden death in dogs, relative to humans: 39–155 times

## CN(C)CCC[C@]1(c2ccc(F)cc2)OCc2cc(C#N)ccc21 [R-citalopram]
[6]; hiPSC-CM
  Triangulation effect: substantial increase
  Electrical activity of the cells: electrically quiescent
  Depolarisation (phase 0) measured by TRise: No changes; also recorded: No significant increase
  Early and medium repolarisation (APD30 and APD50): shortening
  Triangulation (APD90-APD30) effect: significantly increased
  Late repolarisation: prolonged
[6]; [8]
  % Change of cycle length from baseline: -1.96±5.39%
[6]; [9]
  % Change of cycle length from baseline: Quiescent
[6]; hiPSC-CM, 30 min exposure
  Concentration that increased triangulation (APD90-APD30) of the action potential: 180 nM
  Concentration that reduced medium repolarisation (APD50): 1800 nM
[6]; [10]
  Effect on cycle length: not affected
[6]; [11]
  % Change of cycle length from baseline: 0.99±7.43%
[1]
  Concentration relative to S-citalopram after administration of racemic citalopram: 3 times

## CNCCC[C@]1(c2ccc(F)cc2)OCc2cc(C#N)ccc21 [R-demethylcitalopram]
[6]; hiPSC-CM
  Concentration dependence of triangulation: dose-dependent increase
[6]; hiPSC-CM, 2000 nM
  Effect on late repolarisation (APD90): not late repolarisation
[6]; [8]
  % Change of cycle length from baseline: -9.34±2.21 %
[6]; [9]
  % Change of cycle length from baseline: -8.55±6.93 %
[6]; hiPSC-CM, 30 min exposure
  Concentration that increased triangulation (APD90-APD30) of the action potential: 2000 nM
  Concentration that reduced early repolarisation (APD30): 2000 nM
[6]; [10]
  Effect on cycle length: limited shortening
[6]; [11]
  % Change of cycle length from baseline: -6.45±4.32 %

## N#Cc1ccc2c(c1)CO[C@]2(CCCN)c1ccc(F)cc1 [R-didemethylcitalopram]
[6]; hiPSC-CM
  Cardiotoxic at therapeutic concentrations: did not find indications
[6]; [8]
  % Change of cycle length from baseline: -1.09±3.49%
[6]; [9]
  % Change of cycle length from baseline: -1.67±2.65%
[6]; hiPSC-CM, 30 min exposure
  Concentration that increased early repolarisation (APD30): 60 nM
  Concentration that reduced triangulation (APD90-APD30): 6 nM
[6]; [10]
  Effect on cycle length: not affected
[6]; [11]
  % Change of cycle length from baseline: -1.40±5.04%

## CN(C)CCC[C@@]1(c2ccc(F)cc2)OCc2cc(C#N)ccc21 [S-citalopram]
[6]; assuming 56% plasma protein binding
  Calculated total serum concentration corresponding to a free concentration of 60 nM (potential pro-arrhythmic activity): 136 nM
[6]; hiPSC-CM
  Triangulation effect: substantial increase
  Electrical activity of the cells: electrically quiescent
  Depolarisation (phase 0) measured by TRise: No changes; also recorded: No significant increase
  Early and medium repolarisation (APD30 and APD50): shortening
  Triangulation (APD90-APD30) effect: significantly increased
  Late repolarisation: prolonged
[6]; [8]
  % Change of cycle length from baseline: -2.06±5.36%
[6]; [9]
  % Change of cycle length from baseline: Quiescent
[6]; hiPSC-CM, 30 min exposure
  Concentration that increased late repolarisation (APD90): 60 nM
  Concentration that increased triangulation (APD90-APD30) of the action potential: 60 nM
[6]; [10]
  Effect on cycle length: not affected
[6]; [11]
  % Change of cycle length from baseline: 2.14±4.47%
[6]; hiPSC-CM, lowest S-citalopram concentration (60 nM)
  Increase in APD90: 21.9 ms
[6]; lowest S-citalopram concentration, translation per ref 33
  QTc-prolongation corresponding to the APD90 increase: 6.2 ms
[4]
  % of serum concentrations above 136 nM: 5.4-15.9%
Plasma protein
  Plasma protein binding: 55–56% and 56%
[1]
  Serum concentrations per dose, patients >65 years versus adults <40 years: 1.4 times
[1]; large TDM study
  Average total concentration in CYP2C19 poor metabolizers: > 136 nM
  Average total concentration in patients with normal escitalopram metabolism through CYP2C19: 60 nM
[1]; listed as escitalopram
  Time of maximum concentration after intake (Tmax): 3 to 4 h and 3.0 ± 1.5 h
[2]; after intake of 20 mg
  FDA-reported QTc-prolongation: 6.6 ms
[7]; CYP2C19 normal/rapid metabolizer
  Clearance, typical value (CLTV): 26.0 L/h
[7]; CYP2C19 poor/intermediate metabolizer
  Clearance, typical value (CLTV): 19.8 L/h
[7]; population PK model
  Absorption rate constant, typical value (KaTV): 0.8 h⁻¹
  Volume of distribution, typical value (VTV): 947 L
[3]; escitalopram users
  Serum concentration, 10% percentile: 21 nM
  Serum concentration, 25% percentile: 33 nM
  Serum concentration, 50% percentile: 52 nM
  Serum concentration, 75% percentile: 84 nM
  Serum concentration, 90% percentile: 126 nM
  Serum concentration, maximum: 730 nM
  Serum concentration, minimum: 7 nM
  Serum concentration, mean: 66 nM

## CNCCC[C@@]1(c2ccc(F)cc2)OCc2cc(C#N)ccc21 [S-demethylcitalopram]
[6]; hiPSC-CM
  Concentration dependence of triangulation: dose-dependent increase
[6]; [8]
  % Change of cycle length from baseline: -3.81±3.22 %
[6]; [9]
  % Change of cycle length from baseline: -7.22±2.14 %
[6]; hiPSC-CM, 30 min exposure
  Concentration that increased late repolarisation (APD90): 1500 nM
  Concentration that increased triangulation (APD90-APD30) of the action potential: 150 nM
  Concentration that reduced early repolarisation (APD30): 1500 nM
[6]; [10]
  Effect on cycle length: limited shortening
[6]; [11]
  % Change of cycle length from baseline: -4.33±3.45 %

## N#Cc1ccc2c(c1)CO[C@@]2(CCCN)c1ccc(F)cc1 [S-didemethylcitalopram]
[6]; hiPSC-CM
  Cardiotoxic at therapeutic concentrations: did not find indications
[6]; [8]
  % Change of cycle length from baseline: 9.89±8.49%
[6]; [9]
  % Change of cycle length from baseline: 0.09±7.78%
[6]; hiPSC-CM, 30 min exposure
  Concentration that increased early repolarisation (APD30): 15 nM
  Concentration that increased late repolarisation (APD90): 15 nM
  Concentration that increased medium repolarisation (APD50): 15 nM
[6]; [10]
  Concentrations with significant effect on triangulation (APD90-APD30): No tested concentrations
  Effect on cycle length: not affected
[6]; hiPSC-CM, at concentrations higher than 15 nM
  Effects on medium to late repolarisation: not present
[6]; [11]
  % Change of cycle length from baseline: 1.42±3.67%

Reference: PMC10474154, “Pro-arrhythmic effect of escitalopram and citalopram at serum concentrations commonly observed in older patients – a study based on a cohort of 19,742 patients” (eBioMedicine, 2023)
